For assay [1], the system named is Gpnmb, Cdkn1a, and Cdkn2a. Description: RNA analysis (qPCR) of adipose tissue. The class given is in vivo, C57BL/6 mice. Conditions: HFD-fed mice, 16 weeks of age, s.c. vaccination at 8 weeks of age, FIG. 2C. On the procedure: Total RNA (1 μg) was isolated from adipose tissue samples using RNA-Bee (TEL-TEST Inc.). Real-time PCR (qPCR) was performed using a Light Cycler 480 (Roche) equipped with a universal probe library and a Light Cycler 480 probe master (Roche) according to the manufacturer's instructions. Rplp0 was used as an internal control.
RNA analysis of Gpnmb, Cdkn1a, and Cdkn2a was performed using the same method as in “4.” of Reference Example 1, except that adipose tissue collected from C57BL/6 mice (16 weeks of age) bred by feeding HFD from 4 weeks of age and administered with peptide vaccine 1 or a control vaccine by subcutaneous injection at a time point of 8 weeks of age was used. In FIG. 2C, “Cont vac” is a C57BL/6 mouse administered with a control vaccine, and “Gpnmb vac” is a C57BL/6 mouse administered with peptide vaccine 1.
(In qPCR the cycle at which signal appears reflects the starting amount.)

Assay [2] has as its system aging-related acidic β-galactosidase (SA-β-gal). Description: SA-β-gal staining of adipose tissue. The class given is in vivo, C57BL/6 mice. The following applies: HFD-fed mice, 16 weeks of age, s.c. vaccination at 8 weeks of age, vs control vaccine, FIGS. 2G, 2H. Here is the method:
Aging-related acidic β-galactosidase (SA-β-gal) activity in adipose tissue was tested. Briefly, adipose tissue newly isolated from each Gpnmb-DTR mouse was incubated at 37° C. for 2 hours in a β-gal staining solution (containing 1 mg/ml of 5-bromo-4-chloro-3-indaryl β-D-galactopyranoside (X-gal), 5 mmol/L potassium ferrocyanide, 150 mmol/L of sodium chloride, 2 mmol/L of magnesium chloride, 0.01% of sodium deoxycholate, and 0.02% of nonidet-40). Then, the stained adipose tissue was captured (refer to FIG. 1C). SA-β-gal stainability was quantified by Image-J software (refer to FIG. 1D). […]
SA-β-gal staining was performed using the same method as in “3.” of Reference Example 1, except that adipose tissue collected from C57BL/6 mice (16 weeks of age) bred by feeding HFD from 4 weeks of age and administered with peptide vaccine 1 or a control vaccine by subcutaneous injection at a time point of 8 weeks of age was used. The SA-β-gal stainability was quantified by Image-J software (refer to FIG. 2H). […]

Assay [3] deals with arteriosclerotic plaque. Description: Detection of arteriosclerotic plaque (Oil Red O staining). In kind it is in vivo, ApoE/Gpnmb-DTR mice. Conditions: HFD from 4 to 16 weeks of age, s.c. vaccination at 8 weeks of age; vs control vaccine; FIGS. 2J, 2K. Here is the method: Arteriosclerotic plaques were detected by Oil Red O staining. Briefly, autopsy removed adventitial fat to open the entire aorta and fixed the aorta flat in 4 v/v % paraformaldehyde at room temperature for 12 hours. Subsequently, the fixed aorta was washed by immersing in 60 v/v % isopropyl alcohol for 1 minute. Subsequently, the aorta was incubated at 37° C. for 15 minutes in 0.5% of Oil Red O (Sigma-Aldrich) solution (diluted with 60 v/v % isopropyl alcohol). After staining, the sample was briefly immersed in a 60 v/v % isopropyl alcohol solution and then washed with double distilled water. Atherosclerotic lesions were stained red with Oil Red O (refer to FIG. 1G). For the Oil Red O stained region, the plaque region was quantified by Image-J software (refer to FIG. 1H). […]
Detection of arteriosclerotic plaque and analysis of Gpnmb-dependent luciferase activity were performed using the same method as in “6.” and “2.” of Reference Example 1, except that ApoE/Gpnmb-DTR mice (16 weeks of age) bred while feeding HFD for 12 weeks from 4 to 16 weeks of age and administered with peptide vaccine 1 or a control vaccine by subcutaneous injection at a time point of 8 weeks of age were used (refer to FIG. 2J). The Oil Red O stained region was quantified by Image-J software (refer to FIG. 2K). […]

Assay [4] can be described thus: Open field test. In kind it is in vivo, C57BL/6 mice. The following applies: normal diet, s.c. vaccination at 50 weeks of age; vs control vaccine; FIG. 2L. Here is the method:
C57BL/6 mice bred by feeding a normal diet and administered with peptide vaccine 1 or a control vaccine by subcutaneous injection at a time point of 50 weeks of age were used. Open field tests were performed before and after vaccination (50 and 70 weeks of age). The open field test is a test that measures voluntary activity in a novel environment. Each mouse was placed in an open field and tested for 6 minutes. The total action time (seconds) and average speed (cm/sec) of each mouse during the test were measured. The difference between the measurement results at 50 weeks of age and the measurement results at 70 weeks of age is shown in FIG. 2L. In FIG. 2L, “Cont vac” is a C57BL/6 mouse administered with the control vaccine, and “Gpnmb vac” is a C57BL/6 mouse administered with the peptide vaccine 1.

Ends that are not written are not given here.

Regarding “RRGDGRWKD (also: KLH conjugate; listed as Mus musculus) [peptide vaccine 1, peptide of positions 63 to 71 of mouse GPNMB protein]”, in assay [1], the “expression of Cdkn1a” value was “downregulation” and the “expression of Cdkn2a” value is given as “downregulation”. The SA-β-gal activity entry in assay [2] is reported as “decrease”. Also, the “development of atheroma (arteriosclerotic plaque, Oil Red O stained region)” value in assay [3] is on record as “significantly decreased”. Besides, the “results in the open field test (total action time, average speed; difference 50 vs 70 weeks of age)” value in assay [4] is reported as “significantly improved”.

The values are drawn from patent publication US20220267374A1, “IMMUNITY INDUCER AND PHARMACEUTICAL COMPOSITION FOR PREVENTING OR TREATING AGING-RELATED DISEASES” (priority 2019, published 2022).
